The text below walks through data of patent US5780653A, “Nitrophenyl, 10-deacetylated substituted taxol derivatives as dual functional cytotoxic/radiosensitizers” (Vivorx Pharmaceuticals, Inc., priority 1995, dated 1998).

The subject of one data set is microtubule. To be noted: compared with paclitaxel; cited from earlier work.
The conditions of data set [1]: compared with paclitaxel; cited from earlier work.
Another data set concerns central nervous system. The following applies: large-scale clinical trials; cited from earlier work.
The test system of a further data set is cultured mammalian cells. The following applies: cited from earlier work.
A further data set has as its system rodent tumors. To be noted: some rodent tumors; cited from earlier work.
The subject of data set [2] is breast adenocarcinoma cell line MCF-7. The data set is described as follows: In vitro cytotoxicity of paclitaxel derivatives (macroscopic colony formation). The class given is cell-based. How it is done:
Taxol derivatives were assayed for their cytotoxic activities on tumor cell lines in vitro. The breast adenocarcinoma cell line MCF-7 was chosen as a model for the cytotoxicity assay. The cell line was maintained in RPMI 1640 medium supplemented with 10% fetal bovine serum. For the cell survival experiments, a number of 100 mm petri dishes were plated with 5×10^5 cells. Exponentially growing cells were exposed to paclitaxel or paclitaxel derivatives at various concentrations 24 hours later. After exposure to paclitaxel and derivatives for various times, the cells were rinsed, trypsinized and washed with medium. The cells were resuspended as single cell suspensions, counted with a particle counter, plated and incubated for macroscopic colony formation. Following a one to two week incubation, the colonies were fixed with methanol/acetic acid, stained with crystal violet and colonies with more than 50 cells counted. […] The survival was reported as the fraction of cells surviving after exposure to paclitaxel or derivatives thereof. As an example, the cytotoxicity of the derivative synthesized in Example 9, i.e., 3'-Desphenyl-3'-(4-nitrophenyl)-N-debenzoyl-N-(t-butoxycarbonyl)-10-deacetyltaxol, is reported herein.

In the next data set the test system is tubulin. Briefly: In vitro microtubule assembly of paclitaxel derivatives (turbidity, absorbance at 350 nm). To be noted: for absorbance (at 350 nm), tubulin polymerization at 10° C. / absorbance (at 350 nm), tubulin polymerization at 37° C.: 10 μM tubulin, 10 μM taxol or derivative; for absorbance (at 350 nm), tubulin polymerization at 10° C.: pH 6.8, 10° C.; for absorbance (at 350 nm), tubulin polymerization at 37° C.: pH 6.8, 37° C. The format is biochemical. The source says: Paclitaxel inhibits cell replication in the mitotic phase of the cell cycle by promoting polymerization and stabilization of microtubules. Microtubules are polymers of tubulin in dynamic equilibrium with tubulin heterodimers that are composed of alpha and beta protein subunits. Unlike other antimicrotubule agents, such as the vinca alkaloids (that induce microtubule disassembly), paclitaxel shifts the equilibrium towards microtubule assembly. Paclitaxel-induced microtubules are excessively stable, thereby inhibiting the dynamic reorganization of the microtubule network. The cytotoxic properties of paclitaxel are caused by its unique disruptive effects on microtubules. Thus the activity of taxol or taxol analogs and derivatives may be assessed in vitro by their ability to polymerize tubulin into microtubules (Chaudhary et al. Journal of the American Chemical Society 116:4097-4098 (1994). The polymerization of tubulin is accompanied by a concomitant increase in solution turbidity associated with the formation of microtubules. This increase in turbidity can be assayed spectrophotometrically.
Thus, 10 μM tubulin was dissolved in 0.1M MES buffer containing 100 μM GTP and 0.5 mM MgCl2 with a final pH of 6.8. 10 μM tubulin was added to the buffer. 10 μM of taxol (or taxol derivatives) was added to the buffer at 0° C. and the absorbance of the sample measured at 350 nm as the sample temperature increased rapidly to 37° C. with the aid of a circulating water bath connected to the sample chamber of the spectrophotometer. The maximum absorbance of the sample was measured and compared to that of taxol as a control to determine any change in activity of the paclitaxel derivatives.

The test system of data set [3] is grade III human astrocytoma cell line, G18. To be noted: paclitaxel pretreatment and gamma irradiation; cited from earlier work.
Data set [4] deals with HL-60 human leukemic cell line. To be noted: cited from earlier work.
For data set [5], the system named is three human ovarian cancer cell lines. The following applies: cited from earlier work.
Data set [6] relates to cervical carcinoma cell lines. The following applies: cited from earlier work.
Data set [7] concerns human breast and lung cell lines. The following applies: cited from earlier work.
The conditions of data set [8]: intravenous infusion every 2-3 weeks, patients; cited from earlier work.
The conditions of data set [9]: cited from earlier work.

`CC(=O)O[C@@]12CO[C@@H]1C[C@H](O)[C@@]1(C)C(=O)[C@H](O)C3=C(C)[C@@H](OC(=O)[C@H](O)[C@@H](NC(=O)OC(C)(C)C)c4ccccc4)C[C@@](O)([C@@H](OC(=O)c4ccccc4)[C@H]21)C3(C)C` [docetaxel]: the “microtubule assembly activity” value in the data set on microtubule is reported as “more active than paclitaxel”. Further, in [1], the “cytotoxicity” value is recorded as “more active than paclitaxel”.
Regarding `COCC(O)Cn1ccnc1[N+](=O)[O-]` (centres unmarked) [misonidazole], the “toxicity to the central nervous system” value in the data set on central nervous system is reported as “toxic to the central nervous system”. In the data set with cultured mammalian cells, the “hypoxic-cell sensitization, cultured mammalian cells” value is recorded as “excellent hypoxic-cell sensitizer”. For the same compound, in the data set on rodent tumors, the “hypoxic-cell sensitization, rodent tumors” value is “excellent hypoxic-cell sensitizer”.
Take “3'-Desphenyl-3'-(4-nitrophenyl)-N-debenzoyl-N-(isopropoxycarbonyl)-10-deacetyltaxol [Example 9]”: in [2] (10 nM, 24 hours), the “surviving fraction of MCF-7 cells” value is recorded as 2×10^-3. Further, the “increase in cytotoxicity over unmodified taxol” value in [2] (MCF-7, 10 nM, 24 hours) worked out at 30 fold.
Consider `CC(=O)O[C@@]12CO[C@@H]1C[C@H](O)[C@@]1(C)C(=O)[C@H](O)C3=C(C)[C@@H](OC(=O)C(O)C(NC(=O)OC(C)(C)C)c4ccc([N+](=O)[O-])o4)C[C@@](O)([C@@H](OC(=O)c4ccccc4)[C@H]21)C3(C)C` (some centres unmarked) [Example 6], for which, in the data set on tubulin, the “absorbance (at 350 nm), tubulin polymerization at 10° C.” value is 0.37 and the “absorbance (at 350 nm), tubulin polymerization at 37° C.” value is recorded as 0.71. The “tubulin polymerization activity relative to taxol (ratio of absorbances)” value with tubulin (37° C.) is on record as 2.4 times that of taxol. Further, the “activity in tubulin assembly compared with unmodified taxol” value in the data set with tubulin (both at low temperature and at physiological temperatures) is reported as “substantially more active in tubulin assembly than unmodified taxol”.
With `CC(=O)O[C@H]1C(=O)[C@@]2(C)[C@H]([C@H](OC(=O)c3ccccc3)[C@]3(O)C[C@H](OC(=O)[C@H](O)[C@@H](NC(=O)c4ccccc4)c4ccccc4)C(C)=C1C3(C)C)[C@]1(OC(C)=O)CO[C@@H]1C[C@@H]2O` [paclitaxel], in the data set on tubulin, the “absorbance (at 350 nm), tubulin polymerization at 10° C.” value is listed as 0.0 and the “absorbance (at 350 nm), tubulin polymerization at 37° C.” value was determined as 0.295. Also, in the data set with tubulin (taxol (10 μM), 10° C.), the “polymerization of tubulin at 10° C.” value is recorded as “would not polymerize tubulin”. Besides, the “polymerization of tubulin at 37° C.” value in the data set with tubulin (taxol (10 μM), 37° C.) was “would promote polymerization”. Moreover, the viability at 0.01 µM in [2] (Homo sapiens, MCF7, 24 h, read-out: surviving fraction of MCF-7 cells) stood at 6%. The “enhancement of radiosensitivity, G18” value in data set [3] was “significant enhancement of radiosensitivity”. For the same compound, the “radiosensitization, HL-60” value in data set [4] is recorded as “radiosensitization”. In addition, in data set [5], the “radiosensitization, human ovarian cancer cell lines” value is recorded as “radiosensitization”. Besides, the “enhancement in radiosensitization, cervical carcinoma” value in data set [6] is reported as “have not observed an enhancement in radiosensitization”. Moreover, in data set [7], the “enhancement in radiosensitization, human breast and lung” value is on record as “have not observed an enhancement in radiosensitization”. In addition, in data set [8], the serum half-life entry is on record as “up to 19 h”. Besides, the “in vivo radiopotentiation” value in data set [9] is listed as “potent in vivo radiopotentiating agent”.
